Literature values, collected in article PMC11954708 (Clinical Pharmacokinetics, 2025).

Legend:
[1] = total body clearance value
[2] = for Positive FE in vivo: Yes/No; for AUC ratio Observed: fed/fasted in vivo

Row | CYP3A4 or UGT substrate? (CYP3A4 or UGT) | CL (po) [1] | Positive FE in vivo [2] | CL [1] | AUC ratio Observed [2] | Compound
1 | No | 21.23 (po) [51] l/h | No | – | – | Cc1cccc(Nc2ccccc2C(=O)O)c1C [Mefenamic acid]
2 | – | – | Yes | 84 [52] l/h | – | COC(=O)[C@H](c1ccccc1Cl)N1CCc2sccc2C1 [Clopidogrel]
3 | – | – | No | – | – | CCOC(=O)C1=C(C)NC(C)=C(C(=O)OC)C1c1cccc(Cl)c1Cl (centres unmarked) [Felodipine]
4 | – | – | Yes | 2.7 [50] l/h | 1.12 | NC(=O)N1c2ccccc2C=Cc2ccccc21 [Carbamazepine]
5 | No | – | – | 5.28 [51] l/h | – | C[C@H]1O[C@@H](O[C@H]2[C@@H](O)C[C@H](O[C@H]3[C@@H](O)C[C@H](O[C@H]4CC[C@@]5(C)[C@H](CC[C@@H]6[C@@H]5C[C@@H](O)[C@]5(C)[C@@H](C7=CC(=O)OC7)CC[C@]65O)C4)O[C@@H]3C)O[C@@H]2C)C[C@H](O)[C@@H]1O [Digoxin]
6 | – | 9.4 (po) [51] l/h | Yes | – | 1.28 | O=C1Nc2ccc(Cl)cc2[C@@](C#CC2CC2)(C(F)(F)F)O1 [Efavirenz]
